Measurements from US5981497A, “Utilization of sophorolipids as therapeutically active substances or cosmetic products, in particular for the treatment of the skin” (Institut Francais du Petrole, priority 1995, dated 1999).

How the values were obtained:
[1] = Cytotoxicity on primocultures at 24 hours (neutral red), keratinocytes; type: cell-based; conditions: read-out: Cellular Viability Rate; for viability at 24 h, 1000 µM: 10^-3M; for viability at 24 h, 100 µM: 10^-4M; for viability at 24 h, 10 µM: 10^-5M; for viability at 24 h, 1 µM: 10^-6M
Text: (§1) Their innocuousness and their activity make it possible to use them in other stages of healing, namely granulation and epithelialization, by modulating their concentration in the formulas of products that are used. This is possible only because of the low cytotoxicity of sophorolipids, as Tables 3A and 3B show. The toxicity of the products of the invention has been evaluated with a viability test with neutral red on two cellular types of the skin, cells L929 and other fibroblasts of the dermis and cells NCTC 2544 and keratinocytes of the epidermis. The results, which are presented in Tables 3A, 3B, correspond to the rates of cellular viability that are expressed in % relative to the negative test.

[2] = tested on: macrophages (Interleukin-1 release); experiment: IL-1 released by macrophages (Elisa sandwich test on culture supernatant); type: cell-based
Text: It is known, however, that several factors such as cytokines and growth factors play important roles in the process of wound healing. These factors include the epidermal growth factor (EGF), the fibroblastic growth factor (FGF), the platelet-derived growth factor (PDGF), and the beta transforming growth factor (beta-TGF). In addition to these factors, cytokines such as interleukin-l (IL-1), the tumor necrosis factor (TNF), and interleukin-6 (IL-6) also play important roles in the process of wound healing. These factors act by different methods, in combination with other materials, to induce proliferation of dermal and epidermal elements such as fibroblasts. […] Actually, IL-1 affects the differentiation, growth, and activity of many cellular types in the organism. Within the immune system, IL-1 acts as a second signal that is necessary to activate the IL-2 circuit by the activated T lymphocytes. It also potentiates the action of other cytokines. It contributes to the differentiation of B lymphocytes and to their production of immunoglobulins. It modifies vascular permeability by the release of mediators by the endothelial cells and induces the appearance at their surface of a factor that has a procoagulating activity. Owing to its proliferative effect on the fibroblasts, it intervenes in the repair phase.
To show the effect of activating macrophages by sophorolipids, an Elisa sandwich test was carried out on the supernatant of a culture medium that contained macrophages. […] A negative test was also used.

[3] = biological target: T1, fibrin clot reconstituted with bovine thrombin and human fibrinogen (Homo sapiens, UniProt P02671+P02675+P02679); experiment: Fibrinolysis in vitro (lysis of fibrin clot); type: biochemical;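 also: values are percent lysis of the fibrin clot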
T1 sequence (P02671 20-644 isoform P02671-2 limits assumed): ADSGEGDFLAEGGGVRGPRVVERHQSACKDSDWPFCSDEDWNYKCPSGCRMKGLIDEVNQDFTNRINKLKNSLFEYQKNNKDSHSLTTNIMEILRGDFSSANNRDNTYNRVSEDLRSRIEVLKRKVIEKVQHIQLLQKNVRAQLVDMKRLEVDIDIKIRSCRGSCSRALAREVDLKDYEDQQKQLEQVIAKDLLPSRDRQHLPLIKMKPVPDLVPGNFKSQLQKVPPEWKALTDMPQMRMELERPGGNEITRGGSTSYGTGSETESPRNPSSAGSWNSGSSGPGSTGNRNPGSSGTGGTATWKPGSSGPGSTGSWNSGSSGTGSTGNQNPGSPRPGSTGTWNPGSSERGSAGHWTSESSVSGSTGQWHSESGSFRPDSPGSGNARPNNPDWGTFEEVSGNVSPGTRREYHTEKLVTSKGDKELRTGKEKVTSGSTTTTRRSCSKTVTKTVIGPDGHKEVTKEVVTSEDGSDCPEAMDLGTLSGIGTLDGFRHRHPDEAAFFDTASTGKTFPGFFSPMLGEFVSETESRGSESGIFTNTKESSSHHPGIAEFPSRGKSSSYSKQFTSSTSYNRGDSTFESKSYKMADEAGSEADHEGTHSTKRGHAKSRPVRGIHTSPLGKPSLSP
T1 sequence (P02675 45-491 limits assumed): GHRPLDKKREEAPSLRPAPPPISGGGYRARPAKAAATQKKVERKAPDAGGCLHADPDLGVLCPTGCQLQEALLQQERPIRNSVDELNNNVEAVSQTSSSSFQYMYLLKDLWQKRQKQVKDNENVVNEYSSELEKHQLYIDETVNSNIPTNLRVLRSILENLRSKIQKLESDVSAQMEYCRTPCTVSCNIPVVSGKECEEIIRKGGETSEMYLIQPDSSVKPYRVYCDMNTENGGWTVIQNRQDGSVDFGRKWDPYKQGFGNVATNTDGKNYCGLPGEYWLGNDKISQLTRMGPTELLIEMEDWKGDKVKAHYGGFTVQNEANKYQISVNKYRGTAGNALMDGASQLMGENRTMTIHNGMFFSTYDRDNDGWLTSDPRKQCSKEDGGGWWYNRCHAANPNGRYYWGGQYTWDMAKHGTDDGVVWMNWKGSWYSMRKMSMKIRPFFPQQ
T1 sequence (P02679 27-437 isoform P02679-2 limits assumed): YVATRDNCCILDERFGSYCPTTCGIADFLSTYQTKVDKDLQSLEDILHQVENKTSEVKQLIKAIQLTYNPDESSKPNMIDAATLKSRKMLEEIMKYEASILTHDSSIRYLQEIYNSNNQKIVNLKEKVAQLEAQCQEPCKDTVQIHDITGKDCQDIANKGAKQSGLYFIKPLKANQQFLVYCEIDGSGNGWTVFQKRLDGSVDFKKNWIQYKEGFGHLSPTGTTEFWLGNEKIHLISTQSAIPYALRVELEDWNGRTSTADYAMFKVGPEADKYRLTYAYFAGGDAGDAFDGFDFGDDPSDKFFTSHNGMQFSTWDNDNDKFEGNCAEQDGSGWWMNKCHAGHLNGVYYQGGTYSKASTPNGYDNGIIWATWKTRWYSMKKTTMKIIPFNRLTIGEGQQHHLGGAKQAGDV
Experimental: They also act directly on necrotic plaque. […] This lysis was measured from a fibrin clot that was reconstituted with bovine thrombin and human fibrinogen. The clot that is obtained is covered by 0.5 ml of PBS that contains the sample. The modification of the fibrin gel thickness at 4 hours and 24 hours makes it possible to quantify the fibrinolytic activity. This activity will therefore promote fibrinolysis at wounds, making it possible to act on the bedsore spot and to induce better granulation, as well as better organic tissue oxygenation. Moreover, owing to their surfactant property, sophorolipids make the fragments, molecules, soluble and detach the dead cells from the bed of the wound. This last action is more particularly due to their role in desquamation, which will be described below.

[4] = Cytotoxicity on L929 at 24 hours (neutral red); type: cell-based; conditions: mouse, l929 cells, read-out: Cellular Viability Rate; for viability at 24 h, 50000 µM: 5.10-2M; for viability at 24 h, 5000 µM: 5.10-3M; for viability at 24 h, 500 µM: 5.10-4M; for viability at 24 h, 10000 µM: 10^-2M; for viability at 24 h, 1000 µM: 10^-3M; for viability at 24 h, 100 µM: 10^-4M; for viability at 24 h, 10 µM: 10^-5M
Text: as §1

Row | SMILES | viability at 24 h, 1000 µM [1] | viability at 24 h, 100 µM [1] | viability at 24 h, 10 µM [1] | viability at 24 h, 1 µM [1] | Concentrations IL-1 released by macrophages ([2]; 10^-4M) | Concentrations IL-1 released by macrophages ([2]; 10^-5M) | Concentrations IL-1 released by macrophages ([2]; 10^-6M) | viability at 24 h, 50000 µM [4] | viability at 24 h, 5000 µM [4] | viability at 24 h, 500 µM [4] | viability at 24 h, 10000 µM [4] | viability at 24 h, 1000 µM [4] | viability at 24 h, 100 µM [4] | viability at 24 h, 10 µM [4] | also measured
1 | CC(CCCCCC/C=C\CCCCCCCC(=O)O)O[C@@H]1O[C@H](CO)[C@@H](O)[C@H](O)[C@H]1O[C@@H]1O[C@H](CO)[C@@H](O)[C@H](O)[C@H]1O (some centres unmarked) [Sophorolipid in Acid Form] | 86.7% | 99.3% | 99.9% | 99.5% | 795.6 pg/mL | 500.8 pg/mL | 287.2 pg/mL | 5.47% | 7.62% | 99.2% | 6.18% | 100% | 102% | 101% | action on IL-1 release relative to that of lipopolysaccharides (fold) ([2]; 10^-4M): twice; action on IL-1 release compared with lipopolysaccharides ([2]; 10^-5M): equivalent to that of lipopolysaccharides; Lysis of the fibrin clot ([3]; 4 hours, 10% MS): 75 % relative to TN; Lysis of the fibrin clot ([3]; 4 hours, 10-1M): 66 % relative to TN; Lysis of the fibrin clot ([3]; 4 hours, 10^-2M): 5 % relative to TN; Lysis of the fibrin clot ([3]; 4 hours, 10^-3M): 0 % relative to TN; Lysis of the fibrin clot ([3]; 4 hours, 10^-4M): 0 % relative to TN; Lysis of the fibrin clot ([3]; 4 hours, 10^-5M): 0 % relative to TN; Lysis of the fibrin clot ([3]; 24 hours, 10% MS): 90 % relative to TN; Lysis of the fibrin clot ([3]; 24 hours, 10-1M): 80 % relative to TN; Lysis of the fibrin clot ([3]; 24 hours, 10^-2M): 40 % relative to TN; Lysis of the fibrin clot ([3]; 24 hours, 10^-3M): 20 % relative to TN; Lysis of the fibrin clot ([3]; 24 hours, 10^-4M): 5 % relative to TN; Lysis of the fibrin clot ([3]; 24 hours, 10^-5M): 0 % relative to TN
2 | CC1CCCCCC/C=C\CCCCCCCC(=O)O[C@H]2[C@H](O)[C@@H](O)[C@H](O[C@H]3[C@H](O1)O[C@H](CO)[C@@H](O)[C@@H]3O)O[C@@H]2CO (some centres unmarked) [Sophorolipid in Lactone Form] | 6.58% | 95.9% | 99.6% | 99.6% | 255.4 pg/mL | 385.9 pg/mL | 345.1 pg/mL | 5.65% | 5.44% | 6.63% | 5.26% | 5.71% | 87% | 96.5% | Lysis of the fibrin clot ([3]; 4 hours, 30% MS): 15 % relative to TN; Lysis of the fibrin clot ([3]; 24 hours, 30% MS): 33 % relative to TN
